Reference: publication PMC10721329, “Quisinostat is a brain-penetrant radiosensitizer in glioblastoma” (JCI Insight, 2023)
“And” between values parts separate entries of the source, which are not always exact repeats. Identical values can stand only once. Like-named read-outs stand apart in the source and are kept apart here.

Tests used:
[1] = Dose-response cell viability assay in normal astrocytes; type: cell-based, human; conditions: human, primary human astrocytes (NHA), NHA, 3 days, read-out: Cell viability (fraction of DMSO control)
Description: (§1) GSCs were seeded in laminin-coated tissue culture–treated 96-well plates (clear bottom, white plate; Corning) at a density of 1000–5000 cells per well (cell line dependent) in GSC media. U87-MG were seeded using their normal growth conditions without laminin (10% bovine calf serum in DMEM). All cells were incubated at 37°C and allowed to adhere overnight. The next day, cells were treated with incremental concentrations of QST (Selleckchem; 0, 10, 25, 50, 100, 250, 500, and 1000 nM) diluted in media. Cells treated without QST were treated with DMSO diluted in media. Following treatment with QST, cells were grown for 3 to 5 days (cell line dependent), and cell viability was measured and quantified. All cell viability measurements were performed using the CellTiter-Glo luminescent cell viability assay (Promega) following the manufacturer’s instructions. For the sulforhodamine B colorimetric assay for cytotoxicity, the protocol was performed as described elsewhere ([33]). All cell viability results represent the mean of at least 3 biological replicates, each containing 3 technical replicates.
(§2) Supplemental Figure 5. QST induces cell death in tumor tissue but not surrounding normal
(§3) brain tissue in vivo. (A) Dose-response curves with QST (10–1000 nM) in primary human
(§4) astrocytes. Cell viability 3 days after treatment with QST. […]

[2] = tested on: primary human astrocytes (NHA); assay: as above; type: cell-based; conditions: for Cell viability (fraction of DMSO control): NHA, 3 days
Description: as §1, §2, §3, §4

[3] = Total and unbound QST in plasma and normal brain of non-tumor-bearing mice (equilibrium dialysis, LC-MS/MS); type: in vivo, athymic nude mice
Description: Insufficient drug exposure in the brain is a major hurdle in the treatment of brain tumors. […] On the last treatment day, blood and intact brains were harvested 2 hours after dosing with QST (Figure 6E). […] Each brain hemisphere was processed separately to perform matched PK and PD analyses from the same animal. […] For PD analyses, we homogenized entire hemispheres to obtain whole-tissue protein lysates from each mouse and assessed changes in histone H3 acetylation levels using immunoblotting.
Our study therefore emphasizes the importance of implementing a PK-PD–guided approach when evaluating or developing new drugs for GBM. Although PK analyses are now commonly performed in preclinical trials for a variety of different brain tumors, these studies typically measure only the total brain-to-plasma concentration ratio as a measure of drug-brain penetration ([74]–[76]). […] Therefore, we employed an equilibrium dialysis method combined with LC-MS/MS analysis to measure the unbound brain-to-plasma concentration, which represents the pharmacologically active fraction of a drug. A crucial finding in our study was the species-specific differences in QST stability. […] A recent study reported that hydroxamic acids such as QST are common substrates of a family of esterases (carboxylesterases) that are abundantly present in rodent plasma but absent in human plasma ([34], [78]). We confirmed that the addition of BNPP, a specific inhibitor of carboxylesterases, stabilized QST in mouse plasma. Our results therefore highlight a large discrepancy in the metabolic stability between rodent and human species. This is an important consideration for translating preclinical studies to the clinic because such differences may hinder further clinical development of promising drug candidates. Our data will thereby serve as a valuable resource and note of caution for future preclinical studies employing QST or similar drugs with species-specific stability.
QST concentrations in specimens were measured using reverse-phase LC on the AB SCIEX QTRAP6500+ LC-MS/MS system by operating electrospray in the positive ion mode. For liquid chromatographic separation, gradient elution was performed using a Phenomenex Kinetex F5 100 Å column (100 × 2.1 mm, 2.6 μm). The initial composition of the mobile phase was 70% phase A (0.1% formic acid in water) and 30% phase B (0.1% formic acid in 1:1 acetonitrile/methanol) with a 0.35 mL/min flow rate. Gradient elution was achieved as follows: mobile phase (B) was maintained at 30% from 0 to 0.3 minutes, increased to 95% from 0.3 to 0.8 minutes, maintained at 95% from 0.8 to 2.5 minutes, and decreased to 30% from 2.5 to 2.8 minutes. The total run time was 3.5 minutes. The internal standard used in this study was D8-infigratinib. The retention times for QST and D8-infigratinib were 1.6 and 1.8 minutes, respectively. Mass-to-charge ratio transitions were as follows: 395.20 → 144.00 (QST) and 568.08 → 321.00 (D8-infigratinib). LC-MS/MS analysis was performed using an Analyst 1.7 Chromatographic Data System. See Supplemental Methods for detailed PK experiments. […]
vortex-mixed for 10 s and centrifuged at 12000 g at 4 °C for 10 min. A 100-µL aliquot of the supernatant was transferred to an autosampler vial, and 5 µL was injected into the LC-MS/MS system for analysis. Whenever necessary, appropriate dilutions were made to accommodate the analysis of small volume samples.
Brain and Brain Tumor Sample Preparation
Normal brain and brain tumor tissue homogenates were prepared by 1:4 (mass/volume) ratio with PBS. Samples were homogenized under 6.00 m/s speed for 40 seconds with 3 cycles by Bead Ruptor Elite homogenizer (Omni International). Plasma was used as a surrogate matrix for brain/tumor homogenate. Brain homogenate samples from in vivo studies were prepared as described for plasma samples. Analyte and IS were extracted by protein precipitation with methanol containing IS. After centrifugation at 12000 rpm for 10 minutes at 4 °C, 5 µL of […]

[4] = normal mice, individual mice, n=6

## Cn1cc(CNCC2CCN(c3ncc(C(=O)NO)cn3)CC2)c2ccccc21 [QST, quisinostat]
[1]; QST 10 nM (log[nM] 1)
  viability at 3 days, 10 nM: 60.9%
[1]; QST 25 nM (log[nM] 1.39794)
  viability at 3 days, 25 nM: 46.7%
[1]; QST 50 nM (log[nM] 1.69897)
  viability at 3 days, 50 nM: 36.5%
[1]; QST 100 nM (log[nM] 2)
  viability at 3 days, 100 nM: 27.2%
[2]; QST 10 nM (log[nM] 1)
  Cell viability (fraction of DMSO control): 0.6995 and 0.7125
[2]; QST 25 nM (log[nM] 1.39794)
  Cell viability (fraction of DMSO control): 0.5597 and 0.5623
[2]; QST 50 nM (log[nM] 1.69897)
  Cell viability (fraction of DMSO control): 0.4582 and 0.5002
[2]; QST 100 nM (log[nM] 2)
  Cell viability (fraction of DMSO control): 0.3562 and 0.4332
[2]; in vitro dose response assay
  sensitivity of primary human astrocytes to QST compared with GSCs: equally sensitive
[3]; 10 mg/kg IP MWF 2 weeks, 2 hours after last dose
  mean unbound QST level, fold lower in brain than in plasma: more than 70 fold
[3]; athymic nude, mouse, brain, intraperitoneal, 10 mg/kg, normal mouse brains, individual mice, n=6, read-out: Total QST, brain
  concentration at 2 h: 45.3 nM
[3]; athymic nude, mouse, brain, intraperitoneal, 10 mg/kg, normal mouse brains, individual mice, n=6, read-out: Unbound QST, brain
  concentration at 2 h: 1.65 nM
[3]; athymic nude, mouse, brain, ip, 10 mg/kg, normal brain, 10 mg/kg IP MWF 2 weeks, 2 hours after last dose, read-out: unbound drug concentration in the brain
  concentration at 2 h: ~1.7 nM
[3]; [4]
  Total QST, plasma: 464.014 nM and 281.833 nM and 297.864 nM and 455.378 nM and 301.853 nM and 226.232 nM
  UNBOUND [QST], Plasma: 117.95 nM and 180.33 nM and 119.53 nM and 89.59 nM and 183.75 nM and 111.61 nM
[3]; normal mouse brains, individual mice, n=6, read-out: Total QST, brain
  concentration at 2 h: 26.24 nM and 32.91 nM and 41.935 nM and 27.27 nM and 31.45 nM
[3]; normal mouse brains, individual mice, n=6, read-out: Unbound QST, brain
  concentration at 2 h: 2.1 nM and 1.36 nM and 1.57 nM and 2.27 nM and 1.31 nM
